Assay results as given in patent US12351829B2, “Generation, proliferation and expansion of epithelial cells from primary tissue into mucosoid cultures” (Max-Planck-Gesellschaft zur Förderung der Wissenschaften …, priority 2018, dated 2025).

What was measured:
[1] = tested on: parietal cells in corpus-stomach mucosoid culture; settings: BMP4-induced corpus mucosoid culture; 10 μl of 5 mM Histamin solution
Description: Specific signals are needed to drive the parietal cell lineages and in particular the activation of BMP4 and the suppression MEK/MAPK pathway.
Three corpus samples were taken at passage 4 in ALI and grown for 13 days in regular medium following by 2 weeks treatment with 50 ng/ml of BMP4 and removal of Noggin and EGF. The Corpus-gEPMs on filters were pre-incubated with […] Acridine Orange for 15 min. The filter was cut out of the insert and mounted with the cells facing the glass on a IBIDI chamber with 400 μl of media (the same with AO). A coverslip was put on top. Images were taken with 25× (Glycerol) for 10 min to stabilize the filter and avoid movements. A solution of 10 μl of 5 mM Histamin in medium was applied on the border of the coverslip while imaging. Fluorescence of acridine orange was excited at 488 nm (3-4%) and images were collected in a time series (10sec) at 500-550 nm and 600-650.

[2] = tested on: IL-8 expression in gastric-antrum mucosoid cultures; test: Pro-inflammatory stimulation of gastric-antrum mucosoid cultures, IL-8 qPCR; assay type: cell-based, human; settings: 10 μg/ml TNF-α or 5 μg/ml IL-1β for 3 days; +W+R and −W−R cultures
Description: Filters were cut out of the insert and directly transferred to a tube containing 1 ml Trizol (Thermo). After vortexing samples were incubated for 10 min at RT, vortexed again and frozen at −80° C. for long-term storage. 500 μl of chloroform was added to thawed samples before vortexing, incubation for 2 min at RT and centrifugation for 15 min at 4° C. The aqueous phase was mixed with isopropanol, inverted 6× and incubated for 10 min at RT. The sample was transferred to a total RNA isolation Kit column (Thermo) and processed according to the manufacturer's instructions. Total RNA was measured using a NanoDrop and reverse transcription carried out using the Tetro cDNA synthesis Kit (Bioline). DNA was extracted using AllPrep DNA/RNA Mini Kit (Qiagen) according to the manufacturer's instructions; Total DNA was measured using a NanoDrop. qPCR (Step One, Applied Biosystem) was performed using the SensiMix™ SYBR® hi-ROX Kit (Bioline, 3-step cycling according to the manufacturer).
FIG. 16. Antral mucosoid cultures derived from 3 different patients were cultivated for 13 days. Parallel samples were differentiated by excluding Wnt3A and RSPO1 from the culture for 5 days (A)(B) treatment with 10 μg/ml TNF-α or 5 μg/ml IL-1Iβ for 3 days. Expression of IL-8 was analysed by qPCR and normalized to untreated control cells in +W+R medium. ns: not significant; *p<0.005, unpaired t-test. […]

[3] = tested on: ATP4B+ parietal cells in gastric-corpus derived mucosoid cultures; test: BMP4-induced parietal cell differentiation in corpus-stomach mucosoid culture (ATP4B IF); assay type: cell-based, human; settings: 50 ng/ml BMP4 for two weeks, absence of Noggin and EGF; untreated 0,4%

Molecule: NCCc1c[nH]cn1 [histamine]
- acid production (acridine orange changes to orange) [1]: able to produce acid

Molecule: IL1-β: recombinant pro-inflammatory cytokine
- IL-8 expression (qPCR) [2]: induced IL-8 preferentially in +W+R cultures

Molecule: TNF-α
- IL-8 expression (qPCR) [2]: induced IL-8 expression regardless of W/R

B1: BMP4: BMP pathway activator provided at 50 ng/ml to drive parietal cell lineage (protein, UniProt P12644 293-408, looked up)
Bone morphogenetic protein 4: SPKHHSQRARKKNKNCRRHSLYVDFSDVGWNDWIVAPPGYQAFYCHGDCPFPLADHLNSTNHAIVQTLVNSVNSSIPKACCVPTELSAISMLYLDEYDKVVLKNYQEMVVEGCGCR
- ATP4B+ parietal cells [3]: 2,4%
